From US20050130989A1, “N-arylheteroaromatic products compositions containing them and use thereof” (Aventis Pharma S. A., priority 2003, published 2005)
pIC50: −log10 of the molar value.

Experiments:
tubulin = biological target: T1, tubulin (Sus scrofa, UniProt P02550+P02554); test: Evaluation of the inhibition of tubulin polymerization (turbidimetry); format: biochemical, pig; details: tubulin 10 μm (1 mg/ml), 37° C., turbidity at 350 nm; concentration that inhibits the rate of polymerization by 50%; read-out: Inhibition of tubulin polymerization IC 50 (μm)
T1 construct: Tubulin is purified from pig brain according to published methods; from tissue; host or cells: pig brain
T1 sequence (P02550 whole entry): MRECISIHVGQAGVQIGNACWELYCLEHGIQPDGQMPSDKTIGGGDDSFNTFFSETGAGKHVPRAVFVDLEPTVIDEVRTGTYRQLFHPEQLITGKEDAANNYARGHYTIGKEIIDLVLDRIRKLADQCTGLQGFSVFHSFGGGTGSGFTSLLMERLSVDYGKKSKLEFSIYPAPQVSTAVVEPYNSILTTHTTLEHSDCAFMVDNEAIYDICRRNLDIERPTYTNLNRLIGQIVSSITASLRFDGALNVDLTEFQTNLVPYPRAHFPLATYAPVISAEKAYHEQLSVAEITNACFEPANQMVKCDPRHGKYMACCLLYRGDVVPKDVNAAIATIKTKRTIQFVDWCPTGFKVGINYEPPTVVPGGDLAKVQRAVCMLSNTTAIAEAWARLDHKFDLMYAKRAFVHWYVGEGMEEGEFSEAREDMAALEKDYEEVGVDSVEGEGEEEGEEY
T1 sequence (P02554 whole entry): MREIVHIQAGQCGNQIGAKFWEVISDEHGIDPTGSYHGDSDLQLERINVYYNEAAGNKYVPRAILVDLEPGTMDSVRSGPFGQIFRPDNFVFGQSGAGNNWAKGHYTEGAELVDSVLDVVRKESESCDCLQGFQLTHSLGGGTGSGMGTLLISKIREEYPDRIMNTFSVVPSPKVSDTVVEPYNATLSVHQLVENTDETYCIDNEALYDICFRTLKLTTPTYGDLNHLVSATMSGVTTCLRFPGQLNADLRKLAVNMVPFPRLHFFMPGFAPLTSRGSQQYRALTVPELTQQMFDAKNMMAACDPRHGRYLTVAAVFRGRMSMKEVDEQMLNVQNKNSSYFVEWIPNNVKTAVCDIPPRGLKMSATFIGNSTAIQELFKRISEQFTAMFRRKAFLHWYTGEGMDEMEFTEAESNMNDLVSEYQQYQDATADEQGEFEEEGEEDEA
Method: Tubulin is purified from pig brain according to published methods (Shelanski et al., 1973, Proc. Natl. Acad. Sci. USA, 70, 765-768. Weingarten et al., 1975, Proc. Natl. Acad. Sci. USA, 72, 1858-1862). Briefly, the brains are ground and centrifuged in an extraction buffer. The tubulin contained in the supernatant of the extract undergoes two successive cycles of polymerization at 37° C. and depolymerization at 4° C., before being separated from the MAPs (Microtubule Associated Proteins) by chromatography on a phosphocellulose P11 column (Whatman). The tubulin thus isolated is more than 95% pure. It is stored in a buffer known as RB/2 30% glycerol, the composition of which is 50 mM MES-NaOH [2-(N-morpholino)ethanesulfonic acid], pH 6.8; 0.25 mM MgCl2; 0.5 mM EGTA; 30% glycerol (v/v), 0.2 mM GTP (guanosine-5′-triphosphate).
The polymerization of tubulin to microtubules is monitored by turbidimetry as follows: the tubulin is adjusted to a concentration of 10 μm (1 mg/ml) in RB/2 30% glycerol buffer to which 1 mM GTP and 6 mM MgCl2 are added. The polymerization is triggered by an increase in temperature from 6° C. to 37° C. in a cuvette with an optical path length of 1 cm, placed in a UVIKON 931 spectrophotometer (Kontron) equipped with a thermostatically maintained cuvette holder. The increase in the turbidity of the solution is monitored at 350 nm.
The products are dissolved at 10 mM in DMSO and added at variable concentrations (0.5 to 10 μm) to the tubulin solution before polymerization. The IC50 value is defined as the concentration of product that inhibits the rate of polymerization by 50%.

HCT116 cells = test: Inhibition of proliferation of the human colon tumor line HCT116 ([14C]-thymidine incorporation); format: cell-based; details: Homo sapiens, HCT-116, 48 h, 48 hours at 37° C., read-out: Inhibition of HCT116 proliferation IC 50 (μm)
Method: The proliferation of HCT116 cells is evaluated by measuring the incorporation of [^14C]-thymidine in the following manner. The HCT 116 cells (obtained from the ATCC) are cultured in a DMEM medium (Gibco) containing 10% fetal calf serum and antibiotics (1% penicillin, 1% streptomycin). To perform the proliferation test, the cells are inoculated in cytostar 96-well microplates (Amersham), at a rate of 5000 cells per well. [^14C]-thymidine (0.1 μCi/well) and the products to be evaluated are then added. Variable concentrations of products up to 10 μm are used; the DMSO (solvent used to dissolve the products) should not exceed 0.5% in the medium. 48 hours after incubation at 37° C., the radioactivity incorporated into the cells is measured by counting the plate in a TRI-LUX counter (Wallac). The IC50 is defined as the concentration of product that reduces the radioactivity by 50% compared with an untreated control. A product whose IC50 is less than 3 μm is considered cytotoxic.

pIC50 (tubulin) | pIC50 (HCT116 cells) | Compound
5.52 | 7.14 | COc1ccccc1N1CCN(C(=O)c2cc(C)nn2-c2cccc(C)c2)CC1 [3/45]
5.10 | 6.71 | Cc1cccc(-n2nc(C)cc2C(=O)N2CCN(c3cccc(C(F)(F)F)c3)CC2)c1 [3/46]
5.10 | 6.51 | Cc1cccc(-n2nc(C)cc2C(=O)N2CCN(c3ccc(F)cc3)CC2)c1 [3/47]
5.30 | 6.93 | Cc1cccc(-n2nc(C)cc2C(=O)N2CCN(c3ccccc3C)CC2)c1 [3/48]
6.00 | 8.10 | COc1cccc(N2CCN(C(=O)c3cc(C)nn3-c3cccc(C)c3)CC2)c1 [3/49]
5.82 | 8.21 | Cc1cccc(N2CCN(C(=O)c3cc(C)nn3-c3cccc(C)c3)CC2)c1 [3/50]
5.70 | 7.43 | CSc1ccccc1N1CCN(C(=O)c2cc(C)nn2-c2cccc(C)c2)CC1 [3/51]
4.89 | 6.59 | Cc1cccc(-n2nc(C)cc2C(=O)N2CCN(c3ccc(Cl)cc3)CC2)c1 [3/52]
5.92 | 7.28 | Cc1cccc(-n2nc(C)cc2C(=O)N2CCN(c3cc(Cl)ccc3C)CC2)c1 [3/53]
6.00 | 6.93 | COc1ccc(Cl)cc1N1CCN(C(=O)c2cc(C)nn2-c2cccc(C)c2)CC1 [3/54]
5.26 | 5.87 | Cc1cccc(-n2nc(C)cc2C(=O)N2CCN(c3ccccc3C(F)(F)F)CC2)c1 [3/55]
5.30 | 6.86 | Cc1cccc(-n2nc(C)cc2C(=O)N2CCN(c3ccc4c(c3)OCCO4)CC2)c1 [3/56]
5.85 | 7.82 | Cc1cccc(N2CCN(C(=O)c3cc(C)nn3-c3ccc(F)cc3)CC2)c1 [3/57]
5.35 | 5.40 | CSc1ccccc1N1CCN(C(=O)c2cc(C)nn2-c2ccc(F)cc2)CC1 [3/58]
5.24 | 5.30 | Cc1cc(C(=O)N2CCN(c3cccc4ccccc34)CC2)n(-c2ccc(F)cc2)n1 [3/59]
5.89 | 8.07 | COc1ccc(Cl)cc1N1CCN(C(=O)c2cc(C)nn2-c2ccc(F)cc2)CC1 [3/60]
5.22 | 7.15 | Cc1cc(C(=O)N2CCN(c3ccc4c(c3)OCCO4)CC2)n(-c2ccc(F)cc2)n1 [3/62]
6.05 | 7.72 | COc1cccc(N2CCN(C(=O)c3cc(C)nn3-c3ccc(F)cc3)CC2)c1 [3/63]
5.89 | 7.14 | Cc1cc(C(=O)N2CCN(c3ccc(Cl)c(Cl)c3)CC2)n(-c2cccc(Cl)c2)n1 [3/65]
5.70 | 7.14 | Cc1cc(C(=O)N2CCN(c3ccc(C)c(C)c3)CC2)n(-c2cccc(Cl)c2)n1 [3/66]
5.57 | 6.90 | Cc1cc(C(=O)N2CCN(c3ccccc3C)CC2)n(-c2cccc(Cl)c2)n1 [3/67]
5.82 | 7.44 | CCc1ccccc1N1CCN(C(=O)c2cc(C)nn2-c2cccc(Cl)c2)CC1 [3/68]
4.74 | 6.46 | Cc1cc(C(=O)N2CCN(c3ccc(Cl)cc3)CC2)n(-c2cccc(Cl)c2)n1 [3/69]
5.60 | 6.66 | CCOc1ccccc1N1CCN(C(=O)c2cc(C)nn2-c2cccc(Cl)c2)CC1 [3/71]
5.15 | 6.84 | Cc1cc(C(=O)N2CCN(c3cccc(C(F)(F)F)c3)CC2)n(-c2ccc(Cl)cc2)n1 [3/72]
5.60 | 6.95 | COc1cccc(N2CCN(C(=O)c3cc(C)nn3-c3ccc(Cl)cc3)CC2)c1 [3/73]
5.12 | 6.53 | Cc1cccc(N2CCN(C(=O)c3cc(C)nn3-c3ccc(Cl)cc3)CC2)c1 [3/74]
4.77 | 6.33 | COc1ccc(Cl)cc1N1CCN(C(=O)c2cc(C)nn2-c2ccc(Cl)cc2)CC1 [3/75]
5.52 | 5.97 | Cc1ccc(-n2nc(C)cc2C(=O)N2CCN(c3ccc(Cl)c(Cl)c3)CC2)cc1 [3/76]
5.30 | 7.11 | COc1cccc(N2CCN(C(=O)c3cc(C)nn3-c3ccc(C)cc3)CC2)c1 [3/80]
